The values below come from ChEMBL document CHEMBL3351846, “Synthesis and SAR studies of bis-chromenone derivatives for anti-proliferative activity against human cancer cells” (Bioorg Med Chem Lett, 2014).

Where a name gives a salt, the structure may show the parent alone.

What all share (assay type): functional, cell-based
Test [1] is described as follows: Anti-proliferative activity against human PC3 cells by XTT assay. As to conditions: PC-3. (In general: Tetrazolium assays rely on reduction of a dye to a coloured formazan, in cell work by metabolically active cells.)
Test [2] can be described thus: Anti-proliferative activity against human NUGC3 cells by XTT assay. As to conditions: NUGC-3.
Test [3] relates to MDA-MB-231. Put plainly: Anti-proliferative activity against human MDA-MB-231 cells by XTT assay.
Test [4] relates to ACHN. Put plainly: Anti-proliferative activity against human ACHN cells by XTT assay.
A short description of test [5]: Anti-proliferative activity against human HCT15 cells by XTT assay. To be noted: HCT-15.
Test [6] relates to NCI-H23. Put plainly: Anti-proliferative activity against human NCI-H23 cells by XTT assay.

In general, IC50 refers to the midpoint of a concentration-inhibition curve. A low value points to higher potency. With `O=c1c(Cc2coc3ccccc3c2=O)coc2ccccc12`, the half-maximal inhibitory concentration (IC50) is 7.4 µM in test [1]; 7.77 µM in test [2]; more than 10 µM in test [3]; 0.51 µM in test [4]; more than 10 µM in test [5]; 1.4 µM in test [6].
On to `O=c1c(Cc2coc3cccc(O)c3c2=O)coc2ccccc12`, for which the IC50 is 5.95 µM in test [1]; 3.27 µM in test [2]; more than 10 µM in test [3]; 0.74 µM in test [4]; more than 10 µM in test [5]; 7.55 µM in test [6].
Consider `COc1cccc2occ(Cc3coc4ccccc4c3=O)c(=O)c12`, for which the IC50 in test [1] was 3.49 µM; in test [2], 3.19 µM; in test [3], more than 10 µM; in test [4], 0.34 µM; in test [5], 3.43 µM; in test [6] it was 1.93 µM.
With `CC(C)COc1cccc2occ(Cc3coc4ccccc4c3=O)c(=O)c12`, the IC50 in test [1] is 1.72 µM; in test [2], more than 10 µM; in test [3], more than 10 µM; in test [4] it was 1.46 µM; in test [5], more than 10 µM; in test [6], more than 10 µM.
Turning to `CC(C)CCOc1cccc2occ(Cc3coc4ccccc4c3=O)c(=O)c12`, the IC50 in test [1] was more than 10 µM; in test [2], more than 10 µM; in test [3], more than 10 µM; in test [4], 3.96 µM; in test [5], more than 10 µM; in test [6], more than 10 µM.
Regarding `O=c1c(Cc2coc3cccc(OCc4ccccc4)c3c2=O)coc2ccccc12`, the IC50 in test [1] is 4.83 µM; in test [2], 7.22 µM; in test [3] it was more than 10 µM; in test [4], 3.99 µM; in test [5], more than 10 µM; in test [6], more than 10 µM.
In the case of `O=c1c(/C=C/c2coc3ccccc3c2=O)coc2ccccc12`, the IC50 in test [1], in test [2], in test [3], in test [4], in test [5] and in test [6] was more than 10 µM each time.
Take `O=c1c(CCc2coc3ccccc3c2=O)coc2ccccc12`: the IC50 in test [1], in test [2], in test [3], in test [4], in test [5] and in test [6] was more than 10 µM each time.
Take `O=c1c(Cc2coc3cccc(OCC4CCCCC4)c3c2=O)coc2ccccc12`: the IC50 in test [1] was 4.51 µM; in test [2], 3.53 µM; in test [3], 4.11 µM; in test [4], 4.23 µM; in test [5], 4.24 µM; in test [6] it was 4.13 µM.
As for `Cc1ccc2c(=O)c(Cc3coc4cccc(OCC5CCCCC5)c4c3=O)coc2c1`, the IC50 in test [1] came out at 2.44 µM; in test [2] it was 2.15 µM; in test [3], 3.32 µM; in test [4], 2.25 µM; in test [5], 2.22 µM; in test [6], 3.22 µM.
With `COc1ccc2c(=O)c(Cc3coc4cccc(OCC5CCCCC5)c4c3=O)coc2c1`, the IC50 in test [1] came out at 1.12 µM; in test [2] it was 1.44 µM; in test [3] it was 1.2 µM; in test [4] it was 1.35 µM; in test [5], 1.45 µM; in test [6] it was 1.32 µM.
As to `O=c1c(Cc2coc3cccc(OCC4CCCCC4)c3c2=O)coc2cc(Cl)ccc12`, the IC50 in test [1], in test [2], in test [3], in test [4], in test [5] and in test [6] was more than 10 µM each time.
Turning to `O=c1c(Cc2coc3cccc(OCC4CCCCC4)c3c2=O)coc2cc(O)ccc12`, the IC50 in test [1] was found to be 4.25 µM; in test [2], 3.22 µM; in test [3], 3.22 µM; in test [4], 2.1 µM; in test [5], 2.11 µM; in test [6], 2.15 µM.
In the case of `O=C1c2c(OCC3CCCCC3)cccc2OCC1Cc1coc2ccccc2c1=O` (stereo not drawn), the IC50 in test [1] came to 9.38 µM; in test [2], 8.42 µM; in test [3] it was 9.11 µM; in test [4], 8.2 µM; in test [5] it was 8.36 µM; in test [6], 9.49 µM.
`COc1cccc2c1C(=O)c1c(O)c3c(c(O)c1C2=O)C[C@@](O)(C(=O)CO)C[C@@H]3O[C@H]1C[C@H](N)[C@H](O)[C@H](C)O1` [DOXORUBICIN HYDROCHLORIDE]: the IC50 came out at 0.38 µM in test [2], 0.6 µM in test [3], 0.43 µM in test [5] and 0.49 µM in test [6].
